Source: article PMC3038857, “Using Nuclear Receptor Activity to Stratify Hepatocarcinogens” (PLoS ONE, 2011)

How the values were obtained:
LXRa (NR1H3) = target: T1, LXRa (NR1H3) (Homo sapiens, UniProt Q13133); experiment: ATG_LXRa_TRANS: Factorial reporter gene assay (HepG2); type: cell-based; details: HepG2 reporter
T1 construct: expressed in transfected cells; host or cells: HepG2
T1 sequence (Q13133 1-447): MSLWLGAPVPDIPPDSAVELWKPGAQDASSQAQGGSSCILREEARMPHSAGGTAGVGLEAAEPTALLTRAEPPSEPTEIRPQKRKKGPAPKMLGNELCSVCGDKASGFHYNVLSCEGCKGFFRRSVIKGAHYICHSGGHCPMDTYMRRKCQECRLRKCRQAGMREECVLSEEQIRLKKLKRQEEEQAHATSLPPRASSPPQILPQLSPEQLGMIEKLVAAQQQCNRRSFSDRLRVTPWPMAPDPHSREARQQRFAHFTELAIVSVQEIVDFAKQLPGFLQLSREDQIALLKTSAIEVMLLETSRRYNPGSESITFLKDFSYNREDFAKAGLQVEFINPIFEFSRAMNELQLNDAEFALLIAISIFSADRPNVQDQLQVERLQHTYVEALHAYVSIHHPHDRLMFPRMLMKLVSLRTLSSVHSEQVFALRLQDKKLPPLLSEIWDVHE
Protocol: A multiple reporter transcription unit (MRTU) library consisting of 48 transcription factor binding sites was transfected into the HepG2 human liver hepatoma cell line. In addition to the cis-acting reporter genes (CIS), a modification of the approach was used to generate a trans-system (TRANS) with a mammalian one-hybrid assay consisting of an additional 25 MRTU library reporting the activity of nuclear receptor super-family members. […] These assays were performed by Attagene Inc. (Morrisville NC) under contract to EPA.
In addition to the cis-acting reporter genes (CIS), a modification of the approach was used to generate a trans-system (TRANS) with a mammalian one-hybrid assay consisting of an additional 25 MRTU library reporting the activity of nuclear receptor super-family members. […] Chemicals were then tested in the CIS and TRANS assays at seven concentrations starting at the MTC and followed by three-fold serial dilutions. These assays were performed by Attagene Inc. (Morrisville NC) under contract to EPA. Detailed description of the methods, data and analysis methods for this dataset will be presented in a separate publication.

HMGCS2 = experiment: CLZD_HMGCS2: Change in expression of HMGCS2 (primary human hepatocytes); type: cell-based; details: 24 hr
Protocol: This is a collection of multiplexed gene expression assays focused on Phase I and II xenobiotic metabolizing enzymes and transporters. Human primary cell cultures were treated with chemicals at 5 concentrations (0.004-40 [drawing 42] M) for 6, 24 and 48 hr. Concentration- and time-response profiles of chemicals were measured by the expression of key nuclear receptor target genes, activities of CYP1A enzymes (EROD), and cell morphology. Fourteen gene targets were monitored by quantitative nuclease protection assay including: six representative cytochrome P-450 genes, four hepatic transporters, three Phase II conjugating enzymes, and one endogenous metabolism gene involved in cholesterol synthesis. The target genes associated with nuclear receptor pathways are as follows: [drawing 43] and [drawing 44] with [drawing 45]; [drawing 46] , [drawing 47] , [drawing 48] , [drawing 49] , [drawing 50] and [drawing 51] with [drawing 52]; [drawing 53] , [drawing 54] , [drawing 55] and [drawing 56] with [drawing 57]; [drawing 58] with [drawing 59]; and [drawing 60] with [drawing 61] . Assays were run in primary human hepatocyte cultures by CellzDirect Invitrogen Inc. (Durham, NC), in collaboration with EPA.
Multiplexed Gene Expression in Human Primary Hepatocytes: This is a collection of multiplexed gene expression assays focused on Phase I and II metabolic enzymes and transporters. […] Fourteen gene targets were monitored by quantitative nuclease protection assay: six representative cytochrome P450 genes, four hepatic transporters, three Phase II conjugating enzymes, and one endogenous metabolism gene involved in cholesterol synthesis. Cells were exposed at 5 concentrations (0.004-40 µM) for 6, 24 or 48 hr. Gene targets are sentinels for five nuclear receptor signaling pathways: AhR, CAR, PXR, FXR, and PPARα. All gene are associated with nuclear receptor pathways: CYP1A1 and CYP1A2 with AHR; ABCB1, ABCG2, CYP2B6, CYP2C9, CYP2C19 and UGT1A1 with CAR; CYP3A4, GSTA2, SLCO1B1 and SULT2A1 with PXR; HMGCS2 with PPARA; and ABCB11 with FXR. […] Detailed description of the methods, data and analysis methods for this dataset will be presented in a separate publication.

Mouse Liver [1] = details: chronic study, mouse liver; ref ToxRefDB; cited from earlier work
Mouse Liver [2] = details: chronic study, mouse liver; ref ToxRefDB; cited from earlier work; remark: listed apart in the source
Mouse Liver [3] = details: chronic study, mouse liver; ref ToxRefDB; cited from earlier work; remark: listed apart in the source
Rat Liver [4] = details: chronic study, rat liver; ref ToxRefDB; cited from earlier work
Rat Liver [5] = details: chronic study, rat liver; ref ToxRefDB; cited from earlier work; remark: listed apart in the source
Rat Liver [6] = details: chronic study, rat liver; ref ToxRefDB; cited from earlier work; remark: listed apart in the source
PXR (NR1I2) = target: T2, PXR (NR1I2) (Homo sapiens, UniProt O75469); experiment: ATG_PXRE_CIS: Factorial reporter gene assay (HepG2); type: cell-based; design: endogenous in cells; host or cells: HepG2; details: HepG2 reporter
T2 sequence (O75469 1-434): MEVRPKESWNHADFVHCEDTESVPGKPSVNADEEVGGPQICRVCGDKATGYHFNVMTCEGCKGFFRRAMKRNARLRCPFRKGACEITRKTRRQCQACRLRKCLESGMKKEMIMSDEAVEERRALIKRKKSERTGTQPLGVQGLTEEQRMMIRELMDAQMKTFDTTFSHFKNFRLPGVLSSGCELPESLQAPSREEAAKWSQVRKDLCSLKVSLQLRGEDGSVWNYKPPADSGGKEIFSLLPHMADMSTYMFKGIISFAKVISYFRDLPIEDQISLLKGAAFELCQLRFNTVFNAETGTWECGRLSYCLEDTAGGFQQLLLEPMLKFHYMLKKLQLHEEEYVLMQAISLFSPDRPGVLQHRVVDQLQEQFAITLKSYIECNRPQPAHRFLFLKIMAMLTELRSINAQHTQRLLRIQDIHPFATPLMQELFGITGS
In short: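 HepG2 cells transfected with multiplexed reporter libraries: cis-acting binding-site reporters (CIS) and a one-hybrid nuclear-receptor trans system (TRANS). Chemicals tested at seven concentrations, starting at the maximum tolerated concentration with three-fold serial dilutions.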

LXRa (NR1H2) = experiment: NCGC_LXR_Agonist: GAL4 BLAM Reporter gene assay: LXRa; type: cell-based, human; details: agonist mode
Protocol: These assays measure binding constants and enzyme inhibition values for nuclear receptors. The targets include [drawing 67] , [drawing 68] , [drawing 69] , [drawing 70] , [drawing 71] , [drawing 72] , [drawing 73] , [drawing 74] , [drawing 75] and [drawing 76] . Each of the nuclear receptor targets was measured in agonist mode. Assays were run at the NIH Chemical Genomics Center (Rockville, MD).
Cell-based HTS Assays: These assays measuring binding constants and enzyme inhibition values for nuclear receptors. The targets include AR, ER, FXR, LXR, PPARα, PPARδ, PPARγ, RXRα, RXRβ and PXR. Each of the nuclear receptor targets was measured in both agonist and antagonist mode, but the antagonist data is still undergoing analysis due to possible interference between cytotoxicity and assay activity, so antagonist mode data were not used in the present analysis. Assays were run at the NIH Chemical Genomics Center (Rockville, MD) as part of the Tox21 collaboration. […] The R^2 was required to be ≥0.5. Values where only the highest concentration exceeded 50% activity were excluded to eliminate weak or false positives. Detailed description of the methods, data and analysis methods for this dataset will be presented in a separate publication.

CYP3A4 = experiment: CLZD_CYP3A4: Change in expression of CYP3A4 (primary human hepatocytes); type: cell-based; details: 24 hr
In short: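 Primary human hepatocytes exposed to 5 concentrations (0.004-40 µM) for 6, 24 or 48 hr; transcript levels measured by multiplexed quantitative nuclease protection assay. Markers of nuclear receptor pathways: CYP1A1 (AhR), CYP2B6 and ABCB1 (CAR), CYP3A4 (PXR).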

| SMILES | ATG_LXRa_TRANS (LXRa (NR1H3)) | CLZD_HMGCS2_24 (HMGCS2) | CHR_Mouse_Liver_1_AnyLesion (Mouse Liver [1]) | CHR_Mouse_Liver_2_PreneoplasticLesion (Mouse Liver [2]) | CHR_Mouse_Liver_3_NeoplasticLesion (Mouse Liver [3]) | CHR_Rat_Liver_1_AnyLesion (Rat Liver [4]) | CHR_Rat_Liver_2_PreneoplasticLesion (Rat Liver [5]) | CHR_Rat_Liver_3_NeoplasticLesion (Rat Liver [6]) | ATG_PXRE_CIS (PXR (NR1I2)) | NCGC_LXR_Agonist (LXRa (NR1H2)) | CLZD_CYP3A4_24 (CYP3A4) |
| --- | --- | --- | --- | --- | --- | --- | --- | --- | --- | --- | --- |
| CCOC(=O)C(C)Oc1ccc(Oc2cnc3cc(Cl)ccc3n2)cc1 (stereo not shown) [r279] | 4.824 | 5.409 | 6 | 6 | 6 | 6 | 0 | 0 | 4.523 | – | – |
| CCCOc1nn(C(=O)[N-]S(=O)(=O)c2ccccc2C(=O)OC)c(=O)n1C.[Na+] [r264] | – | – | – | – | – | 0 | 0 | 0 | 4.252 | 4.648 | – |
| COc1cc(OC)nc(Sc2cccc(Cl)c2C(=O)[O-])n1.[Na+] [r275] | – | 5.29 | 6 | 6 | 6 | 6 | 6 | 0 | – | – | 4.874 |
